The text below walks through data of patent US20070027080A1, “Method for treatment of vitiligo” (priority 2005, published 2007).

One experiment has as its system fast spreading vitiligo. The experiment can be described thus: Clinical trial: disease activity (arrest of spread) of fast spreading vitiligo, OMP of beta methasone with or without the peptide. It counts as in vivo, human. The source says:
(§1) That this happens was shown in a clinical trial on human volunteers. The above twin objectives were accomplished. FIG. 2a describes two vitiligo patches at the start of treatment of oral steroids, while 2b describes the same patches at the end of 3 months of treatment with oral steroids while at the same time bFGF peptide(s) lotion was applied locally once a day on the lower vitiligo patch for the duration of intake of oral steroids. […] The arrest of the fast spread of the disease was accomplished to the same extent of 88% at the end of 6 months of treatment with oral steroids and the result was not altered by the local application of bFGF peptide(s) lotion (See table 3 for more details)

The test system of experiment [1] is vitiligo patches of volunteers. The experiment can be described thus: Clinical trial: repigmentation of vitiligo patches, OMP of beta methasone with or without local application of the peptide. It counts as in vivo, human.
Description: as §1
At the end of 3 months of combinatorial treatment with steroids and local application of bFGF peptide(s) lotion more than 3 fold more patients got pigmented to a marked extent than with steroid alone (See Table 4 for more details). The percentage of volunteers who had moderate and marked rate of repigmentation with combinatorial therapy at the end of three months of treatment is twice than with the steroid therapy alone.

`C[C@H]1C[C@H]2[C@@H]3CCC4=CC(=O)C=C[C@]4(C)[C@@]3(F)[C@@H](O)C[C@]2(C)[C@@]1(O)C(=O)CO` [OMP Alone, beta methasone]: in the experiment on fast spreading vitiligo (At 3 months), the “No. of patients where the disease was arrested with time” value was determined as 12 and the “Percentage of patients where the disease was arrested” value (“Percentage” for short) was determined as 75%. For the same compound, in the experiment with fast spreading vitiligo (At 6 months), the “No. of patients where the disease was arrested with time” value was 14 and the “Percentage” value turned out to be 87.50%. For the same compound, the “Percentage” value with fast spreading vitiligo (At 6 months, listed as oral steroids) amounted to 88%. Moreover, in experiment [1] (At 3 months), the “Marked repigmentation, % of volunteers” value stood at 12.5%; the “Marked repigmentation, number of volunteers” value was 2; the “Minimal repigmentation, % of volunteers” value turned out to be 68.75%; the “Minimal repigmentation, number of volunteers” value was found to be 11. Besides, in experiment [1] (At 3 months), the “Moderate repigmentation, % of volunteers” value is given as 18.75% and the “Moderate repigmentation, number of volunteers” value is 3. Besides, in experiment [1] (At 6 months), the “Marked repigmentation, % of volunteers” value is reported as 25%; the “Marked repigmentation, number of volunteers” value is on record as 4; the “Minimal repigmentation, % of volunteers” value turned out to be 50%; the “Minimal repigmentation, number of volunteers” value is given as 8. Further, in experiment [1] (At 6 months), the “Moderate repigmentation, % of volunteers” value is on record as 25% and the “Moderate repigmentation, number of volunteers” value amounted to 4.
